What follows are compounds tested against D(3) dopamine receptor (Homo sapiens) (UniProt P35462) (assay: Displacement of [3H]N-methylspiperone from dopamine D3 receptor (unknown origin) assessed as total radioligand binding at 1 uM incubated for 60 mins by microbeta plate reader based method). Conditions: not given.
Sequence of D(3) dopamine receptor (Homo sapiens) (P35462 whole entry): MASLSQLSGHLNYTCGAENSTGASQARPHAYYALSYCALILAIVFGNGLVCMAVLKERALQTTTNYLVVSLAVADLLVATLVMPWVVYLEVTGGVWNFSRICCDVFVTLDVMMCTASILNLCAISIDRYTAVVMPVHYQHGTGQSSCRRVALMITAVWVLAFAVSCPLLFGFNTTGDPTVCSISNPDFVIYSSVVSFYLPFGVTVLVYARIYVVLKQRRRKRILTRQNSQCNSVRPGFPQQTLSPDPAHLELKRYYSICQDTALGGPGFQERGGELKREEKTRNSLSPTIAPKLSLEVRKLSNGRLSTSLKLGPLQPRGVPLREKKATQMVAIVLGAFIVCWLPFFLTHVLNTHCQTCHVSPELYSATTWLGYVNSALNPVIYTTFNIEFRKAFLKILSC

Structure (SMILES)	Activity [%]
Cn1c(=O)c2c(nc3n(CCCCN4CCN(c5ccccc5O)CC4)c(=O)ccn23)n(C)c1=O	26
Cc1cccc(N2CCN(CCCCn3c(=O)ccn4c5c(=O)n(C)c(=O)n(C)c5nc34)CC2)c1C	73
Cc1cc2c(s1)Nc1ccccc1N=C2N1CCN(C)CC1	10
Cc1cccc(N2CCN(CCCCCn3c(=O)ccn4c5c(=O)n(C)c(=O)n(C)c5nc34)CC2)c1C	67
Cn1c(=O)c2c(nc3n(CCCCN4CCN(c5ccc(Cl)c(Cl)c5)CC4)ccn23)n(C)c1=O	0
Cc1cn2c3c(=O)n(C)c(=O)n(C)c3nc2n1CCCCN1CCN(c2ccc(Cl)c(Cl)c2)CC1	64
Cn1c(=O)c2c(nc3n(CCCCCN4CCN(c5ccc(Cl)c(Cl)c5)CC4)ccn23)n(C)c1=O	16
Cn1c(=O)c2c(nc3n(CCCCN4CCN(c5ccc(Cl)c(Cl)c5)CC4)c(=O)ccn23)n(C)c1=O	98
Cn1c(=O)c2c(nc3n(CCCCCN4CCN(c5ccc(Cl)c(Cl)c5)CC4)c(=O)ccn23)n(C)c1=O	61

The compounds below were run against D(3) dopamine receptor (Homo sapiens) (UniProt P35462) (assay: Displacement of [3H]N-methylspiperone from dopamine D3 receptor (unknown origin) assessed as total radioligand binding at 1.66 x 10^-7 M incubated for 60 mins by microbeta plate reader based method). Conditions: not given.

Structure (SMILES)	Activity [%]
Cn1c(=O)c2c(nc3n(CCCCN4CCN(c5ccccc5O)CC4)c(=O)ccn23)n(C)c1=O	84
Cc1cccc(N2CCN(CCCCn3c(=O)ccn4c5c(=O)n(C)c(=O)n(C)c5nc34)CC2)c1C	100
Cc1cc2c(s1)Nc1ccccc1N=C2N1CCN(C)CC1	24
Cc1cccc(N2CCN(CCCCCn3c(=O)ccn4c5c(=O)n(C)c(=O)n(C)c5nc34)CC2)c1C	83
Cn1c(=O)c2c(nc3n(CCCCN4CCN(c5ccc(Cl)c(Cl)c5)CC4)ccn23)n(C)c1=O	31
Cc1cn2c3c(=O)n(C)c(=O)n(C)c3nc2n1CCCCN1CCN(c2ccc(Cl)c(Cl)c2)CC1	90
Cn1c(=O)c2c(nc3n(CCCCCN4CCN(c5ccc(Cl)c(Cl)c5)CC4)ccn23)n(C)c1=O	67
Cn1c(=O)c2c(nc3n(CCCCN4CCN(c5ccc(Cl)c(Cl)c5)CC4)c(=O)ccn23)n(C)c1=O	99
Cn1c(=O)c2c(nc3n(CCCCCN4CCN(c5ccc(Cl)c(Cl)c5)CC4)c(=O)ccn23)n(C)c1=O	96

What follows are compounds tested against T1, 5-hydroxytryptamine receptor 6 (Homo sapiens, UniProt P50406) (assay: Displacement of [3H]LSD from human recombinant 5-HT6 receptor expressed in HEK293 cells assessed as total radioligand binding at 1 uM incubated for 60 mins by microbeta plate reader based method). Conditions: not given.
Format: cell-based

T1 sequence (P50406 whole entry): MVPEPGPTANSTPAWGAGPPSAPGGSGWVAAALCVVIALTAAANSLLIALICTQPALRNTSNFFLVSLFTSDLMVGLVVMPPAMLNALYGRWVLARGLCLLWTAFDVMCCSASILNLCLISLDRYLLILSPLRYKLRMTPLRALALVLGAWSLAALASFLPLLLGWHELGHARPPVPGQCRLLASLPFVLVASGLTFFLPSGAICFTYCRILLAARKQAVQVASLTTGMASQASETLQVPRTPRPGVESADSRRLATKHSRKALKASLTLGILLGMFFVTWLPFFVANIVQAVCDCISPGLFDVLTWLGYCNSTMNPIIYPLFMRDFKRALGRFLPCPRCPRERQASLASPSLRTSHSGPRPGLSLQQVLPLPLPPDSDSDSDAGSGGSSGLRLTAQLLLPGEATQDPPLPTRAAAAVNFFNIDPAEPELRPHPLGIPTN

Structure (SMILES)	Activity [%]
Cn1c(=O)c2c(nc3n(CCCCN4CCN(c5ccccc5O)CC4)c(=O)ccn23)n(C)c1=O	100
Cc1cccc(N2CCN(CCCCn3c(=O)ccn4c5c(=O)n(C)c(=O)n(C)c5nc34)CC2)c1C	94
Cc1cccc(N2CCN(CCCCCn3c(=O)ccn4c5c(=O)n(C)c(=O)n(C)c5nc34)CC2)c1C	59
Cn1c(=O)c2c(nc3n(CCCCN4CCN(c5ccc(Cl)c(Cl)c5)CC4)ccn23)n(C)c1=O	67
Cc1cn2c3c(=O)n(C)c(=O)n(C)c3nc2n1CCCCN1CCN(c2ccc(Cl)c(Cl)c2)CC1	46
Cn1c(=O)c2c(nc3n(CCCCCN4CCN(c5ccc(Cl)c(Cl)c5)CC4)ccn23)n(C)c1=O	62
CSc1ccc2c(c1)C(N1CCN(C)CC1)Cc1ccccc1S2 (stereo unspecified)	1
Cn1c(=O)c2c(nc3n(CCCCN4CCN(c5ccc(Cl)c(Cl)c5)CC4)c(=O)ccn23)n(C)c1=O	67
Cn1c(=O)c2c(nc3n(CCCCCN4CCN(c5ccc(Cl)c(Cl)c5)CC4)c(=O)ccn23)n(C)c1=O	79

These compounds were tested against T2, 5-hydroxytryptamine receptor 1A (Rattus norvegicus) (UniProt P19327) (assay: Displacement of [3H]8-OH-DPAT from rat hippocampus 5-HT1A receptor assessed as total radioligand binding at 1.66 x 10^-7 M incubated for 20 mins by microbeta plate reader based method). Conditions: not given.
T2 sequence (whole entry): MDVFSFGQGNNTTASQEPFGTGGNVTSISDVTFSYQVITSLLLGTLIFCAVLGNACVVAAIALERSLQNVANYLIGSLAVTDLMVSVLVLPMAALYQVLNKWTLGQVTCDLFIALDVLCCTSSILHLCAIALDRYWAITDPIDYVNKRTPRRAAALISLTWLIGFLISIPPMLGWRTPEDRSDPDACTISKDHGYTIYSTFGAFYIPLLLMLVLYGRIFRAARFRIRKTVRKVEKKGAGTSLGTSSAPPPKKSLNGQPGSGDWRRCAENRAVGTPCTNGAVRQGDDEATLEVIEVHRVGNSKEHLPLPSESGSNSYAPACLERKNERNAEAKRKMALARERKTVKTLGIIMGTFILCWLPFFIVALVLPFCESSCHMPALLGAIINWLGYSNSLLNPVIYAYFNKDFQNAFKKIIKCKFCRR

Structure (SMILES)	Activity [%]
Cn1c(=O)c2c(nc3n(CCCCN4CCN(c5ccccc5O)CC4)c(=O)ccn23)n(C)c1=O	97
Cc1cccc(N2CCN(CCCCn3c(=O)ccn4c5c(=O)n(C)c(=O)n(C)c5nc34)CC2)c1C	85
CC[C@@H](CO)NC(=O)[C@@H]1C=C2c3cccc4c3c(cn4C)C[C@H]2N(C)C1	18
Cc1cccc(N2CCN(CCCCCn3c(=O)ccn4c5c(=O)n(C)c(=O)n(C)c5nc34)CC2)c1C	88
Cn1c(=O)c2c(nc3n(CCCCN4CCN(c5ccc(Cl)c(Cl)c5)CC4)ccn23)n(C)c1=O	51
Cc1cn2c3c(=O)n(C)c(=O)n(C)c3nc2n1CCCCN1CCN(c2ccc(Cl)c(Cl)c2)CC1	74
Cn1c(=O)c2c(nc3n(CCCCCN4CCN(c5ccc(Cl)c(Cl)c5)CC4)ccn23)n(C)c1=O	78
Cn1c(=O)c2c(nc3n(CCCCN4CCN(c5ccc(Cl)c(Cl)c5)CC4)c(=O)ccn23)n(C)c1=O	97
Cn1c(=O)c2c(nc3n(CCCCCN4CCN(c5ccc(Cl)c(Cl)c5)CC4)c(=O)ccn23)n(C)c1=O	86

These compounds were tested against T2, 5-hydroxytryptamine receptor 1A (Rattus norvegicus) (assay: Displacement of [3H]8-OH-DPAT from rat hippocampus 5-HT1A receptor assessed as total radioligand binding at 1 uM incubated for 20 mins by microbeta plate reader based method). Conditions: not given.

Structure (SMILES)	Activity [%]
Cn1c(=O)c2c(nc3n(CCCCN4CCN(c5ccccc5O)CC4)c(=O)ccn23)n(C)c1=O	79
Cc1cccc(N2CCN(CCCCn3c(=O)ccn4c5c(=O)n(C)c(=O)n(C)c5nc34)CC2)c1C	42
CC[C@@H](CO)NC(=O)[C@@H]1C=C2c3cccc4c3c(cn4C)C[C@H]2N(C)C1	11
Cc1cccc(N2CCN(CCCCCn3c(=O)ccn4c5c(=O)n(C)c(=O)n(C)c5nc34)CC2)c1C	50
Cn1c(=O)c2c(nc3n(CCCCN4CCN(c5ccc(Cl)c(Cl)c5)CC4)ccn23)n(C)c1=O	9
Cc1cn2c3c(=O)n(C)c(=O)n(C)c3nc2n1CCCCN1CCN(c2ccc(Cl)c(Cl)c2)CC1	13
Cn1c(=O)c2c(nc3n(CCCCCN4CCN(c5ccc(Cl)c(Cl)c5)CC4)ccn23)n(C)c1=O	3
Cn1c(=O)c2c(nc3n(CCCCN4CCN(c5ccc(Cl)c(Cl)c5)CC4)c(=O)ccn23)n(C)c1=O	84
Cn1c(=O)c2c(nc3n(CCCCCN4CCN(c5ccc(Cl)c(Cl)c5)CC4)c(=O)ccn23)n(C)c1=O	52

What follows are compounds tested on Mus musculus (assay: Anxiolytic-like activity in Swiss mouse assessed as increase in number of punished crossings measured during 60 seconds period at 5 mg/kg, ip by four-plate test). Conditions: route intraperitoneal.
Format: functional

Structure (SMILES)	Activity [%]
CN1C(=O)CN=C(c2ccccc2)c2cc(Cl)ccc21 [DIAZEPAM]	57

Each compound was assayed against T1, 5-hydroxytryptamine receptor 6 (assay: Displacement of [3H]LSD from human recombinant 5-HT6 receptor expressed in HEK293 cells assessed as total radioligand binding at 1.66 x 10^-7 M incubated for 60 mins by microbeta plate reader based method). Conditions: not given.
Format: cell-based

Structure (SMILES)	Activity [%]
Cn1c(=O)c2c(nc3n(CCCCN4CCN(c5ccccc5O)CC4)c(=O)ccn23)n(C)c1=O	100
Cc1cccc(N2CCN(CCCCn3c(=O)ccn4c5c(=O)n(C)c(=O)n(C)c5nc34)CC2)c1C	100
Cc1cccc(N2CCN(CCCCCn3c(=O)ccn4c5c(=O)n(C)c(=O)n(C)c5nc34)CC2)c1C	85
Cn1c(=O)c2c(nc3n(CCCCN4CCN(c5ccc(Cl)c(Cl)c5)CC4)ccn23)n(C)c1=O	91
Cc1cn2c3c(=O)n(C)c(=O)n(C)c3nc2n1CCCCN1CCN(c2ccc(Cl)c(Cl)c2)CC1	110
Cn1c(=O)c2c(nc3n(CCCCCN4CCN(c5ccc(Cl)c(Cl)c5)CC4)ccn23)n(C)c1=O	90
CSc1ccc2c(c1)C(N1CCN(C)CC1)Cc1ccccc1S2 (stereo unspecified)	3
Cn1c(=O)c2c(nc3n(CCCCN4CCN(c5ccc(Cl)c(Cl)c5)CC4)c(=O)ccn23)n(C)c1=O	100
Cn1c(=O)c2c(nc3n(CCCCCN4CCN(c5ccc(Cl)c(Cl)c5)CC4)c(=O)ccn23)n(C)c1=O	100

These compounds were tested on Mus musculus (assay: Anxiolytic-like activity in Swiss mouse assessed as increase in number of punished crossings measured during 60 seconds period at 2.5 mg/kg, ip by four-plate test). Conditions: route intraperitoneal.
Format: functional

Structure (SMILES)	Activity [%]
CN1C(=O)CN=C(c2ccccc2)c2cc(Cl)ccc21 [DIAZEPAM]	52

From ChEMBL document CHEMBL3421538, “Structure-activity relationships and molecular studies of novel arylpiperazinylalkyl purine-2,4-diones and purine-2,4,8-triones with antidepressant and anxiolytic-like activity” (Eur J Med Chem, 2015)
